# Data published in ChEMBL document CHEMBL6109147, “Discovery of Potent STING Inhibitors Bearing a Difluorobenzodioxol Structural Motif as Potent Anti-Inflammatory Agents” (J Med Chem, 2025).
# Calls of active or inactive are those of the source. The calls are words filed in the database; no cut-off is given here.
# Assays:
# Mus musculus [1] = assay: Anti-inflammatory activity against Cisplatin induced C57BL/6 STING-KO mouse kidney inflammation model assessed as prevention of Cisplatin induced glomerular injury at 5 mg/kg, ip treated for 3 days; type: functional, organism-based; details: time 3.0 day
# [2] = biological target: T1, Stimulator of interferon genes protein (Mus musculus) (UniProt Q3TBT3); assay: Inhibition of STING downstream signalling in mouse BMDM cells assessed as inhibition of MSA-2 induced Isg56 mRNA level pre-treated for 1 hr followed by stimulated with MSA-2 measured after 4 hrs by real-time PCR analysis; type: cell-based; details: dose 0.3-3 µM, time 5.0 hrs
# T1 sequence (whole entry): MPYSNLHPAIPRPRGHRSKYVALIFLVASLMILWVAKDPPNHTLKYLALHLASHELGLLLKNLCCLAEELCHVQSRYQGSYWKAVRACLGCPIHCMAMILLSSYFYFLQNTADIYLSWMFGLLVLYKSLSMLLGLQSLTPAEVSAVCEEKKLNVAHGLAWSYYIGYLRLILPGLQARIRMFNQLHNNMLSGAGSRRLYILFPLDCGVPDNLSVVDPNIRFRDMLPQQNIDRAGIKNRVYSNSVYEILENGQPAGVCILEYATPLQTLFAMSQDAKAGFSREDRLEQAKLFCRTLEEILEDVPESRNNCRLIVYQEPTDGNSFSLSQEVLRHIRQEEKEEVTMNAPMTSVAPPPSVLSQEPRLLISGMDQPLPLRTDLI
# Mus musculus [3] = assay: Anti-inflammatory activity in TREX1 D18N mouse model assessed as reduction in Ifn-beta mRNA expression in heart at 10 mg/kg, ip measured after 2 weeks; type: functional, organism-based
# [4] = biological target: T1, Stimulator of interferon genes protein (Mus musculus); assay: Inhibition of STING downstream signalling in mouse BMDM cells assessed as inhibition of MSA-2 induced Isg15 mRNA level pre-treated for 1 hr followed by stimulated with MSA-2 measured after 4 hrs by real-time PCR analysis; type: cell-based; details: dose 0.3-3 µM, time 5.0 hrs
# Mus musculus [5] = assay: Anti-inflammatory activity in TREX1 D18N mouse model assessed as reduction in Ifn-beta mRNA expression in kidney at 10 mg/kg, ip measured after 2 weeks; type: functional, organism-based
# [6] = biological target: Stimulator of interferon genes protein (Homo sapiens) (UniProt Q86WV6); assay: Inhibition of STING downstream signalling in human THP1-Dual cells assessed as inhibition of cGAMP induced IFN-beta secretion at 0.3 to 3 uM pre-treated for 1 hr followed by stimulated with cGAMP measured after 24 hrs by ELISA; type: cell-based; details: dose 0.3-3 µM, time 25.0 hrs
# Sequence of Stimulator of interferon genes protein (Homo sapiens) (Q86WV6 whole entry): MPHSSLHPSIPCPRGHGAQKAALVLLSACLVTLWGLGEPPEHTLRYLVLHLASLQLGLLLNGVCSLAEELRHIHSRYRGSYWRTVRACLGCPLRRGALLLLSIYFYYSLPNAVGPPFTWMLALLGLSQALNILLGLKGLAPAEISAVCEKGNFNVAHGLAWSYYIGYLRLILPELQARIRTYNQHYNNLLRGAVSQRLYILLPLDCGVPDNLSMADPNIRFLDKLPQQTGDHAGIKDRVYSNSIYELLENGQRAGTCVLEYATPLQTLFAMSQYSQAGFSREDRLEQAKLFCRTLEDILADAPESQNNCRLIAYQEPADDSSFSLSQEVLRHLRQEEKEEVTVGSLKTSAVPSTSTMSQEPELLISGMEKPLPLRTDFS
# [7] = MRT (0 to infinity) in Sprague-Dawley rat at 3 mg/kg, po; type: ADME, organism-based; details: in vivo
# Mus musculus [8] = assay: Anti-inflammatory activity in TREX1 D18N mouse model assessed as reduction in Ccl5 mRNA expression in kidney at 10 mg/kg, ip measured after 2 weeks; type: functional, organism-based
# [9] = Metabolic stability in mouse liver microsomes assessed as half life; type: ADME, Microsome
# Mus musculus [10] = assay: Anti-inflammatory activity in TREX1 D18N mouse model assessed as reduction in Isg15 mRNA expression in kidney at 10 mg/kg, ip measured after 2 weeks; type: functional, organism-based
# [11] = test system: Stimulator of interferon genes protein (Homo sapiens), Q86WV6 [UNDEFINED MUTATION]; assay: Inhibition of human STING expressed in 293T-Dual-hSTING-H232 cells assessed as reduction in cGAMP-induced secreted luciferase reporter of interferon stimulated gene (ISG) measured after 24 hrs incubation; type: cell-based
# Sequence of Stimulator of interferon genes protein (Homo sapiens), Q86WV6 [UNDEFINED MUTATION] (Q86WV6 whole entry, looked up, stated change not applied): as the sequence (Q86WV6 whole entry) above
# Mus musculus [12] = assay: Effect on Isg15 expression in Cisplatin induced C57BL/6 STING-KO mouse kidney inflammation model at 5 mg/kg, ip treated for 3 days by real-time PCR analysis; type: functional, organism-based; details: time 3.0 day
# Mus musculus [13] = assay: Anti-inflammatory activity in TREX1 D18N mouse model assessed as reduction in Isg56 mRNA expression in heart at 10 mg/kg, ip measured after 2 weeks; type: functional, organism-based
# [14] = biological target: Stimulator of interferon genes protein (Homo sapiens) (UniProt Q86WV6); assay: Inhibition of STING downstream signalling in human THP1-Dual cells assessed as inhibition of cGAMP induced IP-10 secretion at 0.3 to 3 uM pre-treated for 1 hr followed by stimulated with cGAMP measured after 24 hrs by ELISA; type: cell-based; details: dose 0.3-3 µM, time 25.0 hrs
# Mus musculus [15] = assay: Anti-inflammatory activity against MSA-2 induced C57BL/6 mouse inflammation model assessed as inhibition of MSA-2 induced IL-6 mRNA expression in kidney at 10 mg/kg, ip pre-treated for 1 hr followed by stimulated with MSA-2 for 4 hrs by real-time PCR analysis; type: functional, organism-based; details: time 5.0 hrs
# [16] = biological target: Stimulator of interferon genes protein (Homo sapiens) (UniProt Q86WV6); assay: Inhibition of human wild type STING (R232) expressed in human THP-1 Dual cells assessed as reduction in cGAMP-induced IL-6 expression; type: cell-based; details: 293-Dual hSTING-R232
# [17] = Clearance in Sprague-Dawley rat at 1 mg/kg, iv; type: ADME, organism-based; details: in vivo
# [18] = biological target: T1, Stimulator of interferon genes protein (Mus musculus); assay: Inhibition of STING downstream signalling in mouse RAW264.7 cells assessed as inhibition of DMAAA induced TNFalpha secretion level at 0.3 to 3 uM pre-treated for 1 hr followed by stimulated with DMAAA measured after 24 hrs by ELISA; type: cell-based; details: dose 0.3-3 µM, time 25.0 hrs
# Mus musculus [19] = assay: Anti-inflammatory activity against Cisplatin induced C57BL/6 STING-KO mouse kidney inflammation model assessed as prevention of Cisplatin induced interstitial vacuolation at 5 mg/kg, ip treated for 3 days; type: functional, organism-based; details: time 3.0 day
# Mus musculus [20] = assay: Anti-inflammatory activity against MSA-2 induced C57BL/6 mouse inflammation model assessed as inhibition of MSA-2 induced Isg56 RNA expression in kidney at 10 mg/kg, ip pre-treated for 1 hr followed by stimulated with MSA-2 for 4 hrs by real-time PCR analysis; type: functional, organism-based; details: time 5.0 hrs
# Mus musculus [21] = assay: Anti-inflammatory activity against Cisplatin induced C57BL/6 mouse kidney inflammation model assessed as prevention of Cisplatin induced glomerular injury at 5 mg/kg, ip treated for 3 days; type: functional, organism-based; details: time 3.0 day
# [22] = Cytotoxicity against mouse RAW-Lucia ISG cells assessed as cell viability measured after 24 hrs by CCK8 assay; type: toxicity, cell-based
# Mus musculus [23] = assay: Anti-inflammatory activity in TREX1 D18N mouse model assessed as reduction in Isg15 mRNA expression in heart at 10 mg/kg, ip measured after 2 weeks; type: functional, organism-based
# Mus musculus [24] = assay: Anti-inflammatory activity against MSA-2 induced C57BL/6 mouse inflammation model assessed as inhibition of MSA-2 induced TNF-alpha mRNA expression in kidney at 10 mg/kg, ip pre-treated for 1 hr followed by stimulated with MSA-2 for 4 hrs by real-time PCR analysis; type: functional, organism-based; details: time 5.0 hrs
# [25] = Metabolic stability in mouse liver microsomes assessed as liver intrinsic clearance; type: ADME, Microsome
# Mus musculus [26] = assay: Anti-inflammatory activity in TREX1 D18N mouse model assessed as reduction in Cxcl10 mRNA expression in kidney at 10 mg/kg, ip measured after 2 weeks; type: functional, organism-based
# [27] = Metabolic stability in human liver microsomes assessed as microsomal intrinsic clearance; type: ADME, Microsome; details: read-out: CLH
# [28] = Half life in Sprague-Dawley rat at 1 mg/kg, iv; type: ADME, organism-based; details: in vivo
# [29] = Metabolic stability in human liver microsomes assessed as half life; type: ADME, Microsome
# [30] = biological target: T1, Stimulator of interferon genes protein (Mus musculus); assay: Inhibition of STING downstream signalling in mouse RAW264.7 cells assessed as inhibition of DMAAA induced Isg15 mRNA level pre-treated for 1 hr followed by stimulated with DMAAA measured after 4 hrs by real-time PCR analysis; type: cell-based; details: dose 0.3-3 µM, time 5.0 hrs
smiles,measurement,setting,value
N#CC/C=C/c1ccc2[nH]cc(NC(=O)Nc3ccc4c(c3)OC(F)(F)O4)c2c1,Activity,Mus musculus [1],inactive
same,inhibition,[2],Dose-dependent-effect
same,Activity,Mus musculus [3],Active
same,inhibition,[4],Dose-dependent-effect
same,Activity,Mus musculus [5],Active
same,inhibition,[6],Active
same,MRT,[7],460 min
same,Activity,Mus musculus [8],Active
same,half-life,[9],26.7 min
same,Activity,Mus musculus [10],Active
same,inhibition,[11],Active
same,Activity,Mus musculus [12],inactive
same,Activity,Mus musculus [13],Active
same,inhibition,[14],Active
same,inhibition,Mus musculus [15],Active
same,inhibition,[16],Active
same,clearance,[17],88.1 mL/min/kg
same,inhibition,[18],Active
same,Activity,Mus musculus [19],inactive
same,inhibition,Mus musculus [20],Active
same,inhibition,Mus musculus [21],inactive
same,Activity,[22],Non-toxic
same,Activity,Mus musculus [23],Active
same,inhibition,Mus musculus [24],Active
same,CLH,[25],206 µL/min/mg
same,Activity,Mus musculus [26],Active
same,microsomal CLint,[27],41 µL/min/mg
same,half-life,[28],19.8 min
same,half-life,[29],33.8 min
same,inhibition,[30],Dose-dependent-effect
